≈ marks a conversion by molar mass, not a printed value.
Assays:
B. subtilis (ATCC 6633) [1] = test system: B. subtilis (ATCC 6633); design: method as in Crombie et al.[17]; conditions: ref Crombie et al.[17]; cited from earlier work
S. aureus (ATCC 25923) [2] = test system: S. aureus (ATCC 25923); design: method as in Crombie et al.[17]; conditions: ref Crombie et al.[17]; cited from earlier work
[3] = test system: NS-1 (ATCC TIB-18) mouse myeloma cells; design: method as in Crombie et al.[17]; conditions: mouse myeloma NS-1; ref Crombie et al.[17]; cited from earlier work
[4] = test system: Saccharomyces cerevisiae (ATCC 9763); conditions: S. cerevisiae ATCC 9763; ref Crombie et al.[17]; cited from earlier work
MRSA (ATCC 33592) [5] = test system: MRSA (ATCC 33592); design: method as in Crombie et al.[17]; conditions: ref Crombie et al.[17]; cited from earlier work
[6] = test system: NFF (ATCC PCS-201) human neonatal foreskin fibroblast cells; design: method as in Crombie et al.[17]; conditions: ref Crombie et al.[17]; cited from earlier work
[7] = test system: fatty acid synthase II (FAS II); conditions: cited from earlier work
[8] = test system: NFF (ATCC PCS-201) human neonatal foreskin fibroblast cells; assay: Cytotoxicity resazurin assay, NFF cells; format: cell-based; conditions: Homo sapiens; neonatal foreskin fibroblast NFF, 96 h; read-out: IC50 NFF
Method: (§1) 12. Bioactivity screening.
(§2) Purified metabolites were dissolved in DMSO to create stock solutions of 10,000 µg/mL. An aliquot from each stock solution was transferred to the first well of Rows B to G on a 96-well microtitre plate and then serially diluted two-fold with DMSO across the 12 wells of the plate to achieve a 2,048-fold concentration gradient. Bioassay medium was added to an aliquot of each diluted solution to achieve a 100-fold dilution in the final bioassay. This […]
(§3) 0.1 µg/mL in 2% DMSO for yeasts. Row A served as a control with no test compound (indicating no inhibition), and Row H was left uninoculated (serving as a control for complete inhibition). […]
(§4) MIC endpoints were determined visually. Absorbance was measured using a Multiskan Skyhigh […]
as §4
(§5) NS-1 (ATCC TIB-18) mouse myeloma and NFF (ATCC PCS -201) human neonatal foreskin fibroblast cells were each inoculated in 96-well microtitre plates (190 µL) at 50,000 cells/mL in DMEM (Dulbecco's Modified Eagle Medium + 10% fetal bovine serum (FBS) + 1% penicillin/streptomycin (10,000 U/mL / 10,000 µg/mL, Life Technologies Cat. No. 15140122), together with resazurin (250 µg/mL; 10 µL) and incubated in 37 °C (5% CO2) incubator. The plates were incubated for 96 h during which time the positive control wells change colour from a blue to pink colour. The absorbance of each well was measured using Multiskan Skyhigh Microplate Spectrophotometer (Thermofisher Scientific) at 605 nm. Sparsomycin was used as a control. The IC50 values were determined using a sigmoidal dose-response model with variable slope in GraphPad Prism 8.

[9] = test system: methicillin-resistant S. aureus (MRSA); design: method as in PMID 19952429; conditions: cited from earlier work
B. subtilis (ATCC 6633) [10] = assay: Antibacterial ProTOX bioassay, B. subtilis; format: cell-based; conditions: Bacillus subtilis, ATCC6633; B. subtilis ATCC 6633, 48 h, 28 °C; read-out: Minimum inhibitory concentration (MIC) B. subtilis
Method: as §1, §2
(§6) 0.1 µg/mL in 2% DMSO for yeasts. Row A served as a control with no test compound (indicating no inhibition), and Row H was left uninoculated (serving as a control for complete inhibition).
(§7) B. subtilis (ATCC 6633), S. aureus (ATCC 25923) and MRSA (ATCC 33592) were used as indicator species for antibacterial activity, employing the ProTOX bioassay platform. A bacterial suspension (50 mL in a 250 mL flask) was prepared in nutrient media by cultivating it for 24 h at 250 rpm and 28 °C. The suspension was diluted to an absorbance of 0.01 absorbance units per mL, and 10 µL aliquots were added to the wells of a 96-well microtitre plate containing the test compounds dispersed in 190 µL of nutrient broth (Amyl) with 10 µL resazurin (12.5 µg/mL). The plates were incubated at 28 °C for 48 h, during which the positive control wells changed colour from blue to light pink. Tetracycline was employed as a control for B. subtilis, while ampicillin was used for S. aureus and MRSA. MIC endpoints were determined visually. Absorbance was measured using a Multiskan Skyhigh Microplate Spectrophotometer (Thermo Fisher Scientific) at 605 nm.

[11] = test system: Saccharomyces cerevisiae (ATCC 9763); assay: Antifungal EuTOX bioassay, S. cerevisiae; format: cell-based; conditions: Saccharomyces cerevisiae, ATCC9763; S. cerevisiae ATCC 9763, 48 h; read-out: Minimum inhibitory concentration (MIC) S. cerevisiae
Method: as §1, §2, §3, §4
Saccharomyces cerevisiae (ATCC 9763) was used as indicator species for antifungal activity, employing the EuTOX bioassay platform. A yeast suspension (50 mL in a 250 mL flask) was prepared in 1% malt extract broth by cultivating it for 24 h at 250 rpm and 24 °C. The suspension was diluted to absorbances of 0.03 absorbance units per mL and 30 µL were added to the wells of a 96-well microtitre plate containing the test compounds dispersed in 100 µL of malt extract agar with bromocresol green (50 µg/mL). The plates were incubated at 28 °C for 48 h, during which the positive control wells changed colour from blue to yellow. Blasticidin S HCl was used

[12] = test system: mammalian adenosine triphosphatases; design: method as in PMID 8270486; conditions: cited from earlier work
[13] = test system: NS-1 (ATCC TIB-18) mouse myeloma cells; assay: Cytotoxicity resazurin assay, NS-1 cells; format: cell-based; conditions: NS1; mouse myeloma NS-1 ATCC TIB-18, 96 h; read-out: IC50 NS-1
Method: as §1, §2, §3, §4, §4, §5

HIV-1 integrase = test system: HIV-1 integrase; design: method as in PMID 19952429, PMID 15015729; conditions: cited from earlier work
MRSA (ATCC 33592) [14] = assay: Antibacterial ProTOX bioassay, MRSA; format: cell-based, methicillin-resistant S. aureus; conditions: Staphylococcus aureus; MRSA ATCC 33592, 48 h, 28 °C; read-out: Minimum inhibitory concentration (MIC) MRSA
Method: as §1, §2, §6, §7

S. aureus (ATCC 25923) [15] = assay: Antibacterial ProTOX bioassay, S. aureus; format: cell-based; conditions: Staphylococcus aureus, ATCC25923; S. aureus ATCC 25923, 48 h, 28 °C; read-out: Minimum inhibitory concentration (MIC) S. aureus
Method: as §1, §2, §6, §7

Structure (SMILES) | Minimum inhibitory concentration (MIC) B. subtilis (B. subtilis (ATCC 6633) [1]) [µg/mL] | Minimum inhibitory concentration (MIC) S. aureus (S. aureus (ATCC 25923) [2]) [µg/mL] | IC50 NS-1 [3] [µM] | Minimum inhibitory concentration (MIC) S. cerevisiae [4] [µg/mL] | Minimum inhibitory concentration (MIC) MRSA (MRSA (ATCC 33592) [5]) [µg/mL] | IC50 NFF [6] [µM] | inhibition of fatty acid synthase II (FAS II) [7] | IC50 [8] [µg/mL] | antibacterial activity against MRSA [9] | MIC (B. subtilis (ATCC 6633) [10]) [µg/mL] | MIC [11] [µg/mL] | inhibition of mammalian adenosine triphosphatases [12] | IC50 [13] [µg/mL] | inhibition of HIV-1 integrase (HIV-1 integrase) | MIC (MRSA (ATCC 33592) [14]) [µg/mL] | MIC (S. aureus (ATCC 25923) [15]) [µg/mL]
CCCCC/C=C\C/C=C\CCCCCCCc1cc(O[C@@H]2O[C@H](CO)[C@H](O)[C@H](O)[C@H]2O)cc(O)c1C(=O)Oc1cc(C)c(C(=O)O)c(O)c1 [2a, Geministatin A] | 1.6 (≈ 2.28 µM) | 6.3 (≈ 8.99 µM) | >50 | >200 | 6.3 (≈ 8.99 µM) | >100 |  |  |  |  |  |  |  |  |  | 
CCCCCCCCCCCCCCCc1cc(O[C@@H]2O[C@H](CO)[C@@H](O)[C@H](O)[C@H]2O)cc(O)c1C(=O)Oc1cc(C)c(C(=O)O)c(O)c1 [1a, Aquastatin A] |  |  |  |  |  |  | inhibit | > 100 | demonstrated antibacterial activity | 1.6 (≈ 2.36 µM) | > 200 | inhibitor | > 100 | inhibit | 1.6 (≈ 2.36 µM) | 12.5 (≈ 18.5 µM)
CCCCC/C=C\C/C=C\CCCCCCCc1cc(O)cc(O)c1C(=O)Oc1cc(C)c(C(=O)O)c(O)c1 [2b, Geministatin B] | 0.4 (≈ 0.743 µM) | 3.1 (≈ 5.75 µM) | >50 | >200 | 1.6 (≈ 2.97 µM) | >100 |  |  |  |  |  |  |  |  |  | 

From publication PMC11514314, “The aquastatin biosynthetic gene cluster encodes a versatile polyketide synthase capable of synthesising heteromeric depsides with diverse alkyl side chains” (Chemical Science, 2024)
